# Results as given in patent US20030143189A1, “Therapy for topical diseases” (priority 2001, published 2003).
# Tested on: plantar warts
# Assay: Treatment of plantar warts on a patient's feet with in situ polymeric film versus freezing
# Format: in vivo, human
# Experimental: A patient presents to a dermatologist with two similar plantar warts on the soles of their left and right feet. The wart on the right foot is treated by freezing with liquid nitrogen.
smiles,measurement,setting,value
N#N [liquid nitrogen],pain caused by the treatment (freeze burn),plantar wart on sole of foot,makes walking on the foot painful for several days
same,time until the wart resolves,"plantar wart on sole of foot, film re-applied every 3-4 days",3 weeks
same,return of the wart after resolution,"plantar wart, film treatment continued two weeks after resolution",has returned after two months
